# Source: patent US12133843B2, “IL-8 inhibitors for use in the treatment and/or prevention of bacterial secondary infections” (priority 2017, dated 2024)
# What was measured:
# [1] = test system: H1N1 influenza virus plus cigarette smoke; test: Lung inflammation exacerbation model combining H1N1 influenza infection and cigarette smoke exposure (Cs-H1N1); assay type: in vivo, female C57BL/6 mice; settings: survival assay, once a day for 7 days from day of infection
# Excerpt: Viral infections are among the principal causes of COPD exacerbations (Mackay, A. J. & Hurst, J. R. Immunol Allergy Clin North Am 33, 95-115; 2013). For that reason, the inventors combined influenza infection and cigarette smoke exposure (Cs) in mice in order to model COPD exacerbation. The inventors essentially exposed female C57BL/6 mice to Cs for 12 days and infect them with 1000 pfu of H1N1 influenza virus at day 7 after starting daily Cs exposure (Cs-H1N1).
# [2] = test system: Streptococcus pneumoniae (ATCC 6303 serotype 3); test: Single pneumococcal infection (pneumonia) in mice; assay type: in vivo, C57BL/6J mice; settings: S. pneumoniae i.n.
# neutrophil influx = settings: this dose and schedule (10 mg/kg oral gavage); cited from earlier work
# [3] = in vivo; cited from earlier work
# [4] = test system: Influenza A/WSN/33 H1N1 (IAV); test: Single IAV infection in mice, treatment with CXCR1/CXCR2 antagonist; assay type: in vivo, C57BL/6J mice; settings: 10^4 PFU IAV
# [5] = test system: S. pneumoniae secondary infection after IAV; assay type: in vivo, C57BL/6J mice
# [6] = 10 mg/kg at 6, 12, 24, 36 h, 48 h after infection, BALF
# [7] = 10 mg/kg twice a day for 5 days, day 5, BAL
# [8] = 10 mg/kg twice a day for 5 days, day 5, BAL fluid ELISA
compound,measurement,setting,value
C[C@@H](C(=O)NS(C)(=O)=O)c1ccc(OS(=O)(=O)C(F)(F)F)cc1 [DF2156A],Mortality rate,"[1]; Cs-H1N1 mice, LD50 of influenza virus",slightly reduced
same,"Mice mortality, delay (survival curve vs Cs-H1N1 group)",[1],significantly delayed
"C[C@@H](C(N)=O)c1ccc(OS(=O)(=O)C(F)(F)F)cc1 [DF2162, R(−)-2-[(4′-trifluoromethanesulfonyloxy)phenyl]propionamide]",Lung injury (overall pathological score),"[2]; 10 mg/kg at 6, 12, 24, 36 h, 48 h, score max 18 points",reduced the lung injury
same,Neutrophils in the lungs,"[2]; 10 mg/kg at 6, 12, 24, 36 h, 48 h after infection",reduction in neutrophils
same,Neutrophils recruited into the airways,[2]; [6],decreased
same,Number of leukocytes recruited into the airways,[2]; [6],decreased number of leukocytes
same,Lethality,"[2]; 10 mg/kg twice a day for 2 days, followed 10 days",protected mice from lethality
same,Neutrophil influx in other models,neutrophil influx,significant inhibition of neutrophil influx
same,Half-life,[3],long half-life
same,Weight loss (morbidity),"[4]; 10 mg/kg oral gavage twice a day, day 0 to 5, vs vehicle",reduction of weight loss
same,Histological analysis of lungs: bronchiolar and vascular inflammation,"[4]; 10 mg/kg twice a day for 5 days, H&E slides",reduced bronchiolar and vascular inflammation
same,Levels of MPO in the lungs,"[4]; 10 mg/kg twice a day for 5 days, day 5",did not reduce
same,Neutrophils in the airways,[4]; [7],decreased
same,Number of leukocytes recruited into the airways,[4]; [7],decreased
same,Levels of CXCL1 in the airways,[4]; [8],decreased
same,Levels of IL-6 in the airways,[4]; [8],did not reduce
same,Levels of TNF-α in the airways,[4]; [8],decreased
same,Viral loads in the lungs,"[4]; 10 mg/kg twice a day for 5 days, day 5, plaque assay, vs vehicle",reduced
same,Lung injury (histopathological score),"[4]; 10 mg/kg twice a day for 5 days, day 5, score max 18 points",reduced the lung injury
same,Levels of IL-10 in BAL fluid,"[5]; mouse, in vivo",decreased
same,Mortality after secondary infection,"[5]; mouse, in vivo, 10 mg/kg",delayed mortality
same,Weight loss,"[5]; mouse, in vivo, 10 mg/kg",reduced the weight loss
same,Histopathological lung damage (overall score of lung injury),"[5]; treated days 3-6 of IAV, […]",decreased such histopathological lung damage
same,Levels of CXCL-1 in BAL fluid,"[5]; treated days 3-6 of IAV, […]",prevented the increase
same,Levels of IL-6 in BAL fluid,"[5]; treated days 3-6 of IAV, […]",prevented the increase
same,Levels of IL-12 in BAL fluid,"[5]; treated days 3-6 of IAV, […]",prevented the increase
same,Levels of TNF-α in BAL fluid,"[5]; treated days 3-6 of IAV, […]",prevented the increase
same,Number of bacteria in the blood,"[5]; treated days 3-6 of IAV, […]",reduction in number of bacteria
same,Recruitment of neutrophils into the lungs (MPO assay),"[5]; treated days 3-6 of IAV, […]",decreased recruitment of neutrophils
same,Recruitment of neutrophils into the airways,"[5]; treated days 3-6 of IAV, […], BAL",decreased recruitment of neutrophils
same,Levels of protein in BALF (protein leakage),"[5]; treated days 3-6 of IAV, […], Bradford assay",decreased the levels of protein in BALF
"C[N+]1(C)[C@@H]2C[C@@H](OC(=O)C(O)(c3cccs3)c3cccs3)C[C@H]1[C@@H]1O[C@@H]12 [Tiotropium, reference compound]","Mice mortality, delay (survival curve vs Cs-H1N1 group)",[1],no significant differences
